Measurements published in PMC8015227, “Understanding the Metabolism of Proteolysis Targeting Chimeras (PROTACs): The Next Step toward Pharmaceutical Applications” (Journal of Medicinal Chemistry, 2020).
Like-named read-outs stand apart in the source and are kept apart here.

Assays:
[1] = Nonenzymatic stability of 1 (dBet1) in the autosampler in four solutions during LC-MS; type: physicochemical; conditions: for nonenzymatic stability in autosampler: 12 h
Method: dBet1 (1) (10 mM in DMSO) was diluted 1:1000 in PBS/ACN (50:50, vol/vol) to afford a final concentration of 10 μM; 100 μL was drawn and dried under a gentle nitrogen stream at 40 °C for 30 min. After that evaporation was completed, the dry residue was reconstituted with 100 μL of DMSO. Additional three solutions of dBet1 (1) (10 μM) were prepared in PBS, PBS/ACN (50:50, vol/vol), and DMSO. The four solutions were stored into the autosampler of the LC apparatus at 37 °C for 12 h. Injections (2 μL) were programmed every 3 h.

[2] = Metabolic stability in cryopreserved human hepatocytes; type: in vitro ADME; conditions: human
Method: (§1) Cryopreserved human hepatocytes (pooled suspension hepatocytes, Gibco) were thawed placing in a 37 °C shaking water bath according to the manufacturer’s specifications and resuspended in Williams E medium (WEM) to have 1 × 10^6 cells/mL. Samples with the test compound at 1 μM were incubated at 37 °C, and aliquots of 50 μL were collected at 0, 10, 30, 60, 120, and 240 min. The incubations were quenched 1:3 with ice-cold acetonitrile (containing 1 μM labetalol as the internal standard). Samples were then centrifuged at 12000 rpm for 5 min at 4 °C. The supernatant was concentrated by evaporation under a nitrogen stream and reconstituted with DMSO. Blank was prepared similarly but in the absence of the investigated compounds.
(§2) A Thermo Q-exactive mass spectrometer (Thermo Fisher Scientific, Waltham, MA) was used. The LC system, governed by Chromeleon X-press software, consists of a Binary pump, a thermostated autosampler, and a column compartment, all Dionex Ultimate 3000 series modules (Thermo Fisher Scientific, Waltham, MA). A volume of 2 μL was injected for each sample. Chromatographic separation of analytes was conducted in reverse-phase chromatography. In brief, a Luna Omega 1.6 μm Polar (C18, 2.1 mm × 150 mm) was used, and the mobile phases consisted of water (A) and acetonitrile (B), both containing formic acid at 0.1%. The LC flow was set at 0.400 mL/min in a 12 min gradient elution as follows: 99.5:0.5 (A/B) to 5:95 (A/B) over 10 min, 5:95 (A/B) for 2 min, and then reversion back to 99.5:0.5 (A/B) over 2.5 min. The column was operating at a constant temperature of 40 °C.

[3] = tested on: cryopreserved human hepatocytes; test: as above; type: in vitro ADME; conditions: for substrate left: cryopreserved human hepatocytes, end of incubation (240 min)
Method: as §1, §2

[4] = cryopreserved human hepatocytes (pooled, suspension), Figures 3-5, cryopreserved human hepatocytes, read-out: half-life (t1/2)
[5] = cryopreserved human hepatocytes (pooled, suspension), Table S1, PROTACs, cryopreserved human hepatocytes, read-out: t1/2
[6] = cryopreserved human hepatocytes (pooled, suspension), supplement CSV, human hepatocytes, read-out: HLH t1/2
[7] = cryopreserved human hepatocytes (pooled, suspension), Table 1, incubation in cryopreserved human hepatocytes, 1 μM, up to 240 min, read-out: t1/2
[8] = Table 1, biotransformations observed in cryopreserved human hepatocytes
[9] = supplement CSV, in brackets, final time point 240 min
[10] = cryopreserved human hepatocytes (pooled, suspension), Table 2, cryopreserved human hepatocytes, read-out: t1/2
[11] = Table 2, biotransformations observed in cryopreserved human hepatocytes
[12] = cryopreserved human hepatocytes (pooled, suspension), Table S2, free ligands, cryopreserved human hepatocytes, read-out: t1/2

half-life at 1 µM [2, 4] [min]	half-life at 1 µM [2, 5] [min]	half-life at 1 µM [2, 6] [min]	SMILES	further results
135	135	135	Cc1sc2c(c1C)C(c1ccc(Cl)cc1)=N[C@@H](CC(=O)NCCCCNC(=O)COc1cccc3c1C(=O)N(C1CCC(=O)NC1=O)C3=O)c1nnc(C)n1-2 (stereo partly shown) [Compound 1, dBet1]	nonenzymatic stability in autosampler ([1]; PBS/ACN (1:1 v/v), 37 °C): Degradation was also observed; substrate degradation within the first three hours ([1]; PBS/ACN-DMSO protocol, autosampler 37 °C): about 10%; nonenzymatic stability in autosampler ([1]; pure DMSO, 37 °C): very stable over time; nonenzymatic stability in autosampler ([1]; pure PBS pH 7.4, 37 °C): rapidly degrades
	55.1	55.1	Cc1sc2c(c1C)C(c1ccc(Cl)cc1)=N[C@@H](CC(=O)NCCCCCCCCNc1cccc3c1C(=O)N(C1CCC(=O)NC1=O)C3=O)c1nnc(C)n1-2 (stereo partly drawn) [Compound 4, 2-((S)-4-(4-Chlorophenyl)-2,3,9-trimethyl-6H-thieno[3,2-f][1,2,4]triazolo[4,3-a][1,4]diazepin-6-yl)-N-(8-((2-(2,6-dioxopiperidin-3-yl)-1,3-dioxoisoindolin-4-yl)amino)octyl)acetamide]	half-life at 1 µM [2, 7]: 55.1 min; Reaction (soft spots) [3, 8]: a. N-dealkylation (x2) b. Aliphatic-hydroxylation c. Dehydrogenation*
> 240	> 240	> 240	Cc1ncsc1-c1ccc([C@H](C)NC(=O)[C@@H]2C[C@@H](O)CN2C(=O)[C@@H](NC(=O)CCN2CCN(C(=O)C[C@@H]3N=C(c4ccc(Cl)cc4)c4c(sc(C)c4C)-n4c(C)nnc43)CC2)C(C)(C)C)cc1 [Compound 11, (2S,4R)-1-((S)-2-(3-(4-(2-((S)-4-(4-Chlorophenyl)-2,3,9-trimethyl-6H-thieno[3,2-f][1,2,4]triazolo[4,3-a][1,4]diazepin-6-yl)acetyl)piperazin-1-yl)propanamido)-3,3-dimethylbutanoyl)-4-hydroxy-N-((S)-1-(4-(4-methylthiazol-5-yl)phenyl)ethyl)pyrrolidine-2-carboxamide]	HLH percentage of substrate left at the final time point of analysis [3, 9]: 70.0%
> 240	> 240	> 240	Cc1ncsc1-c1ccc([C@H](C)NC(=O)[C@@H]2C[C@@H](O)CN2C(=O)[C@@H](NC(=O)CCCCn2cc(CN3CCN(C(=O)c4cc(Cc5n[nH]c(=O)c6ccccc56)ccc4F)CC3)nn2)C(C)(C)C)cc1 [Compound 24, (2S,4R)-1-((S)-2-(5-(4-((4-(2-Fluoro-5-((4-oxo-3,4-dihydrophthalazin-1-yl)methyl)benzoyl)piperazin-1-yl)methyl)-1H-1,2,3-triazol-1-yl)pentanamido)-3,3-dimethylbutanoyl)-4-hydroxy-N-((S)-1-(4-(4-methylthiazol-5-yl)phenyl)ethyl)pyrrolidine-2-carboxamide]	substrate left [3]: about 84%; HLH percentage of substrate left at the final time point of analysis [3, 9]: 84.3%
> 240	> 240	> 240	Cc1ncsc1-c1ccc([C@H](C)NC(=O)[C@@H]2C[C@@H](O)CN2C(=O)[C@@H](NC(=O)CCCCn2cc(CCCC(=O)N3CCN(C(=O)c4cc(Cc5n[nH]c(=O)c6ccccc56)ccc4F)CC3)nn2)C(C)(C)C)cc1 [Compound 25, (2S,4R)-1-((S)-2-(5-(4-(4-(4-(2-Fluoro-5-((4-oxo-3,4-dihydrophthalazin-1-yl)methyl)benzoyl)piperazin-1-yl)-4-oxobutyl)-1H-1,2,3-triazol-1-yl)pentanamido)-3,3-dimethylbutanoyl)-4-hydroxy-N-((S)-1-(4-(4-methylthiazol-5-yl)phenyl)ethyl)pyrrolidine-2-carboxamide]	substrate left [3]: about 84%; HLH percentage of substrate left at the final time point of analysis [3, 9]: 84.7%
8.4	8.4	8.4	O=C(COc1cccc2c1C(=O)N(C1CCC(=O)NC1=O)C2=O)NCCCCCCCCNC(=O)COc1c(-c2csc(N3CCOCC3)n2)ccc(F)c1F (stereo not shown) [Compound 26, 2-(2,3-Difluoro-6-(2-morpholinothiazol-4-yl)phenoxy)-N-(8-(2-((2-(2,6-dioxopiperidin-3-yl)-1,3-dioxoisoindolin-4-yl)oxy)acetamido)octyl)acetamide]	half-life at 1 µM [2, 10]: 8.4 min; Reaction (soft spots) [3, 11]: a. Amide hydrolysis b. N-dealkylation c. O-dealkylation
	39.4	39.4	O=C(COc1cccc2c1C(=O)N(C1CCC(=O)NC1=O)C2=O)NCCOCCOCCNC(=O)COc1c(-c2csc(N3CCOCC3)n2)ccc(F)c1F (stereo not shown) [Compound 27, 2-(2,3-Difluoro-6-(2-morpholinothiazol-4-yl)phenoxy)-N-(2-(2-(2-(2-((2-(2,6-dioxopiperidin-3-yl)-1,3-dioxoisoindolin-4-yl)oxy)acetamido)ethoxy)ethoxy)ethyl)acetamide]	half-life at 1 µM [2, 10]: 39.4 min; Reaction (soft spots) [3, 11]: a. Amide hydrolysis b. O-dealkylation (x3) c. Aliphatic-hydroxylation
	47.6	47.6	O=C(COc1c(-c2csc(N3CCOCC3)n2)ccc(F)c1F)NCCCCCCCCNc1cccc2c1C(=O)N(C1CCC(=O)NC1=O)C2=O (stereo not shown) [Compound 30, 2-(2,3-Difluoro-6-(2-morpholinothiazol-4-yl)phenoxy)-N-(8-((2-(2,6-dioxopiperidin-3-yl)-1,3-dioxoisoindolin-4-yl)amino)octyl)acetamide]	half-life at 1 µM [2, 10]: 47.6 min; Reaction (soft spots) [3, 11]: a. Amide hydrolysis b. N-dealkylation c. O-dealkylation d. Aliphatic-hydroxylation
	45.3	45.3	O=C1CCC(N2C(=O)c3cccc(NCCOCCOCCOc4c(-c5csc(N6CCOCC6)n5)ccc(F)c4F)c3C2=O)C(=O)N1 (stereo not shown) [Compound 32, 4-((2-(2-(2-(2,3-Difluoro-6-(2-morpholinothiazol-4-yl)phenoxy)ethoxy)ethoxy)ethyl)amino)-2-(2,6-dioxopiperidin-3-yl)isoindoline-1,3-dione]	
	25.2	25.2	Cc1ncsc1-c1ccc([C@H](C)NC(=O)[C@@H]2C[C@@H](O)CN2C(=O)[C@@H](NC(=O)COCCCNC(=O)COc2c(-c3csc(N4CCOCC4)n3)ccc(F)c2F)C(C)(C)C)cc1 [Compound 36]	
	37.6	37.6	Cc1ncsc1-c1ccc([C@H](C)NC(=O)[C@@H]2C[C@@H](O)CN2C(=O)[C@@H](NC(=O)COCCOCCNC(=O)COc2c(-c3csc(N4CCOCC4)n3)ccc(F)c2F)C(C)(C)C)cc1 [Compound 37]	half-life at 1 µM [2, 7]: 37.6 min; Reaction (soft spots) [3, 8]: a. O-dealkylation (x5) b. Amide Hydrolysis (x2) c. Glucuronidation d. Dehydrogenation
	67.6	67.6	Cc1ncsc1-c1ccc([C@H](C)NC(=O)[C@@H]2C[C@@H](O)CN2C(=O)[C@@H](NC(=O)CCCCCCCOc2c(-c3csc(N4CCOCC4)n3)ccc(F)c2F)C(C)(C)C)cc1 [Compound 38]	
40.1	40.1	40.1	Cc1ncsc1-c1ccc([C@H](C)NC(=O)[C@@H]2C[C@@H](O)CN2C(=O)[C@@H](NC(=O)CCCCn2cc(COc3c(-c4csc(N5CCOCC5)n4)ccc(F)c3F)nn2)C(C)(C)C)cc1 [Compound 39]	
		140	Nc1cccc2c1C(=O)N(C1CCC(=O)NC1=O)C2=O (stereo not shown) [Compound 41, pomalidomide, reference compound]	half-life at 1 µM [2, 7]: 140 min; half-life at 1 µM [2, 12]: 140 min; Reaction (soft spots) [3, 8]: a. Amide Hydrolysis (x4)
		92	Cc1ncsc1-c1ccc([C@H](C)NC(=O)[C@@H]2C[C@@H](O)CN2C(=O)[C@@H](N)C(C)(C)C)cc1 [Compound 42, reference compound]	half-life at 1 µM [2, 7]: 92 min; half-life at 1 µM [2, 12]: 92 min; Reaction (soft spots) [3, 8]: a. N-dealkylation b. Aromatic hydroxylation c. Aliphatic-hydroxylation d. Aliphatic-carbonylation
			Cc1sc2c(c1C)C(c1ccc(Cl)cc1)=N[C@@H](CC(=O)O)c1nnc(C)n1-2 [Compound 43, (+)-JQ1, reference compound]	half-life at 1 µM ([2]; hepatocytes, HLH t1/2 (min)): > 240 min; half-life at 1 µM ([2]; hepatocytes, t1/2 (min)): > 240 min; Reaction (soft spots) [3]: a. Aliphatic-hydroxylation; HLH percentage of substrate left at the final time point of analysis ([3]; human, 240 min, 1 µM): 100.0%
		99.7	O=C(O)c1ccc2c(c1)nc(Nc1cccc(Cl)c1)c1ccncc12 [Compound 44, CX4945, reference compound]	half-life at 1 µM [2, 12]: 99.7 min
		> 240	Cl.O=C(c1cc(Cc2n[nH]c(=O)c3ccccc23)ccc1F)N1CCNCC1 [Compound 45, reference compound]	half-life at 1 µM [2, 12]: > 240 min; HLH percentage of substrate left at the final time point of analysis [3, 9]: 77.7%
< 20		18.3	Oc1c(-c2csc(N3CCOCC3)n2)ccc(F)c1F [Compound 46, reference compound]	half-life at 1 µM [2, 7]: 18.3 min; half-life at 1 µM [2, 12]: 18.3 min; Reaction (soft spots) [3, 8]: a. O-dealkylation b.Glucuronidation c. Aliphatic hydroxylation
